Data on 27 compounds can be found in US20180334436A1 (VIIV HEALTHCARE UK LIMITED, priority 2015, published 2018).

This test deals with HIV. The test is described as follows: MT4 assay (anti-HIV activity). In kind it is cell-based. Conditions: Human immunodeficiency virus 1, 96 h, antiviral HIV activity in HTLV-1 transformed cell line MT-4; luciferase read 96 hours later; 10 point dose response. The procedure: Antiviral HIV activity and cytotoxicity values for compounds of the invention from Table 1 were measured in parallel in the HTLV-1 transformed cell line MT-4 based on the method previously described (Hazen et al., 2007, In vitro antiviral activity of the novel, tyrosyl-based human immunodeficiency virus (HIV) type 1 protease inhibitor brecanavir (GW640385) in combination with other antiretrovirals and against a panel of protease inhibitor-resistant HIV (Hazen et al., “In vitro antiviral activity of the novel, tyrosyl-based human immunodeficiency virus (HIV) type 1 protease inhibitor brecanavir (GW640385) in combination with other antiretrovirals and against a panel of protease inhibitor-resistant HIV”, Antimicrob. Agents Chemother. 2007, 51: 3147-3154; and Pauwels et al., “Sensitive and rapid assay on MT-4 cells for the detection of antiviral compounds against the AIDS virus”, J. of Virological Methods 1987, 16: 171-185).
Luciferase activity was measured 96 hours later by adding a cell titer glo (Promega, Madison, Wis.). Percent inhibition of cell protection data was plotted relative to no compound control. Under the same condition, cytotoxicity of the compounds was determined using cell titer Glo™ (Promega, Madison, Wis.). IC50s were determined from a 10 point dose response curve using 3-4-fold serial dilution for each compound, which spans a concentration range >1000 fold.
These values are plotted against the molar compound concentrations using the standard four parameter logistic equation:
y=((Vmax*x̂n)/(K̂n+x̂n))+Y2
Y2=minimum y n=slope factor
Vmax=maximum y x=compound concentration [M]
Regarding `Cc1ccc(-c2c(C)c3c(c(C)c2[C@H](OC(C)(C)C)C(=O)O)CN(C(=O)OC(C)(C)C)CC3)cc1` [Example 17, (S)-2-(tert-Butoxy)-2-(2-(tert-butoxycarbonyl)-5,8-dimethyl-6-(p-tolyl)-1,2,3,4-tetrahydroisoquinolin-7-yl)acetic Acid], the half-inhibitory concentration (IC50) was found to be 444 nM.

`Cc1ccc(-c2c(C)c3c(c(C)c2[C@H](OC(C)(C)C)C(=O)O)CN(S(=O)(=O)CC2CCCCC2)CC3)cc1` [Example 18, (S)-2-(tert-Butoxy)-2-(2-((cyclohexylmethyl)sulfonyl)-5,8-dimethyl-6-(p-tolyl)-1,2,3,4-tetrahydroisoquinolin-7-yl)acetic Acid]: the half-maximal inhibitory concentration (IC50) amounted to 1180 nM.

As for `Cc1ccc(-c2c(C)c3c(c(C)c2[C@H](OC(C)(C)C)C(=O)O)CN(S(=O)(=O)C2CCCCC2)CC3)cc1` [Example 19, (S)-2-(tert-Butoxy)-2-(2-(cyclohexylsulfonyl)-5,8-dimethyl-6-(p-tolyl)-1,2,3,4-tetrahydroisoquinolin-7-yl)acetic Acid], the IC50 was 1450 nM.

`Cc1ccc(-c2c(C)c3c(c(C)c2[C@H](OC(C)(C)C)C(=O)O)CN(C(=O)CC(C)(C)C)CC3)cc1` [Example 20, (S)-2-(tert-Butoxy)-2-(2-(3,3-dimethylbutanoyl)-5,8-dimethyl-6-(p-tolyl)-1,2,3,4-tetrahydroisoquinolin-7-yl)acetic Acid]: the IC50 stood at 119 nM.

Turning to `Cc1ccc(-c2c(C)c3c(c(C)c2C(OC(C)(C)C)C(=O)O)CCN(C2CCCCC2)C3)cc1` (stereo not drawn) [Example 21, 2-(tert-Butoxy)-2-(2-cyclohexyl-5,8-dimethyl-7-(p-tolyl)-1,2,3,4-tetrahydroisoquinolin-6-yl)acetic Acid], the half-inhibitory concentration (IC50) came to 27 nM.

As for `Cc1ccc(-c2c(C)c3c(c(C)c2C(OC(C)(C)C)C(=O)O)CCN(C(=O)c2cccc(F)c2)C3)cc1` (stereo not drawn) [Example 22, 2-(tert-Butoxy)-2-(2-(3-fluorobenzoyl)-5,8-dimethyl-7-(p-tolyl)-1,2,3,4-tetrahydroisoquinolin-6-yl)acetic Acid], the IC50 was 329 nM.

For `Cc1ccc(-c2c(C)c3c(c(C)c2C(OC(C)(C)C)C(=O)O)CCN(C(=O)N2CCCCC2)C3)cc1` (stereo not drawn) [Example 23, 2-(tert-Butoxy)-2-(5,8-dimethyl-2-(piperidine-1-carbonyl)-7-(p-tolyl)-1,2,3,4-tetrahydroisoquinolin-6-yl)acetic Acid], the half-maximal inhibitory concentration (IC50) was 108 nM.

Regarding `Cc1ccc(-c2c(C)c3c(c(C)c2[C@H](OC(C)(C)C)C(=O)O)CCN(C(=O)C(C)(C)C)C3)cc1` [Example 24, (S)-2-(tert-Butoxy)-2-(5,8-dimethyl-2-pivaloyl-7-(p-tolyl)-1,2,3,4-tetrahydroisoquinolin-6-yl)acetic Acid], the IC50 was found to be 87 nM.

As to `Cc1ccc(-c2c(C)c3c(c(C)c2[C@H](OC(C)(C)C)C(=O)O)CCN(C(=O)CC(C)(C)C)C3)cc1` [Example 25, (S)-2-(tert-Butoxy)-2-(2-(3,3-dimethylbutanoyl)-5,8-dimethyl-7-(p-tolyl)-1,2,3,4-tetrahydroisoquinolin-6-yl)acetic Acid], the IC50 came to 95 nM.

Take `COc1c(F)cccc1C(=O)N1CCc2c(C)c([C@H](OC(C)(C)C)C(=O)O)c(-c3ccc(C)cc3)c(C)c2C1` [Example 26, (S)-2-(tert-Butoxy)-2-(2-(3-fluoro-2-methoxybenzoyl)-5,8-dimethyl-7-(p-tolyl)-1,2,3,4-tetrahydroisoquinolin-6-yl)acetic Acid]: the IC50 worked out at 61 nM.

With `Cc1ccc(-c2c(C)c3c(c(C)c2[C@H](OC(C)(C)C)C(=O)O)CCN(C(=O)OC(C)(C)C)C3)cc1` [Example 27, (S)-2-(tert-Butoxy)-2-(2-(tert-butoxycarbonyl)-5,8-dimethyl-7-(p-tolyl)-1,2,3,4-tetrahydroisoquinolin-6-yl)acetic Acid], the IC50 is 114 nM.

On to `Cc1ccc(-c2c(C)c3c(c(C)c2[C@H](OC(C)(C)C)C(=O)O)CCN(C2CCOCC2)C3)cc1` [Example 28, (S)-2-(tert-Butoxy)-2-(5,8-dimethyl-2-(tetrahydro-2H-pyran-4-yl)-7-(p-tolyl)-1,2,3,4-tetrahydroisoquinolin-6-yl)acetic Acid], for which the IC50 is 378 nM.

In the case of `Cc1ccc(-c2c(C)c3c(c(C)c2[C@H](OC(C)(C)C)C(=O)O)CCN(C2CCCCC2)C3)cc1` [Example 29, (S)-2-(tert-Butoxy)-2-(2-cyclohexyl-5,8-dimethyl-7-(p-tolyl)-1,2,3,4-tetrahydroisoquinolin-6-yl)acetic Acid], the concentration for half-maximal inhibition (IC50) was determined as 13 nM.

In the case of `Cc1ccc(-c2c(C)c3c(c(C)c2[C@H](OC(C)(C)C)C(=O)O)CCN(Cc2cccc(F)c2)C3)cc1` [Example 30, (S)-2-(tert-Butoxy)-2-(2-(3-fluorobenzyl)-5,8-dimethyl-7-(p-tolyl)-1,2,3,4-tetrahydroisoquinolin-6-yl)acetic Acid], the IC50 is 382 nM.

With `Cc1ccc(-c2c(C)c3c(c(C)c2[C@H](OC(C)(C)C)C(=O)O)CCN(CC2CCCCC2)C3)cc1` [Example 31, (S)-2-(tert-Butoxy)-2-(2-(cyclohexylmethyl)-5,8-dimethyl-7-(p-tolyl)-1,2,3,4-tetrahydroisoquinolin-6-yl)acetic Acid], the IC50 worked out at 50 nM.

In the case of `Cc1ccc(-c2c(C)c3c(c(C)c2[C@H](OC(C)(C)C)C(=O)O)CCN(C2CCCC2)C3)cc1` [Example 32, (S)-2-(tert-Butoxy)-2-(2-cyclopentyl-5,8-dimethyl-7-(p-tolyl)-1,2,3,4-tetrahydroisoquinolin-6-yl)acetic Acid], the 50% inhibitory concentration (IC50) is 96 nM.

As to `Cc1ccc(-c2c(C)c3c(c(C)c2[C@H](OC(C)(C)C)C(=O)O)CCN(CC(C)(C)C)C3)cc1` [Example 33, (S)-2-(tert-Butoxy)-2-(5,8-dimethyl-2-neopentyl-7-(p-tolyl)-1,2,3,4-tetrahydroisoquinolin-6-yl)acetic Acid], the IC50 was 37 nM.

As for `Cc1ccc(-c2c(C)c3c(c(C)c2[C@H](OC(C)(C)C)C(=O)O)CCN(CCc2ccccc2)C3)cc1` [Example 34, (S)-2-(tert-Butoxy)-2-(5,8-dimethyl-2-phenethyl-7-(p-tolyl)-1,2,3,4-tetrahydroisoquinolin-6-yl)acetic Acid], the 50% inhibitory concentration (IC50) turned out to be 165 nM.

For the compound `Cc1ccc(-c2c(C)c3c(c(C)c2[C@H](OC(C)(C)C)C(=O)O)CCN(C(=O)NC2CCCCC2)C3)cc1` [Example 35, (S)-2-(tert-Butoxy)-2-(2-(cyclohexylcarbamoyl)-5,8-dimethyl-7-(p-tolyl)-1,2,3,4-tetrahydroisoquinolin-6-yl)acetic Acid], the IC50 worked out at 360 nM.

Turning to `Cc1ccc(-c2c(C)c3c(c(C)c2[C@H](OC(C)(C)C)C(=O)O)CCN(c2ccccc2)C3)cc1` [Example 36, (S)-2-(tert-Butoxy)-2-(5,8-dimethyl-2-phenyl-7-(p-tolyl)-1,2,3,4-tetrahydroisoquinolin-6-yl)acetic Acid], the 50% inhibitory concentration (IC50) was found to be 148 nM.

For the compound `Cc1ccc(-c2c(C)c3c(c(C)c2[C@H](OC(C)(C)C)C(=O)O)CN(C(=O)CC2CCCCC2)CC3)cc1` [Example 37, (S)-2-(tert-butoxy)-2-(2-(2-cyclohexylacetyl)-5,8-dimethyl-6-(p-tolyl)-1,2,3,4-tetrahydroisoquinolin-7-yl)acetic Acid], the IC50 worked out at 118 nM.

With `Cc1ccc(-c2c(C)c3c(c(C)c2[C@H](OC(C)(C)C)C(=O)O)CCN(S(=O)(=O)N2CCCCC2)C3)cc1` [Example 38, (S)-2-(tert-butoxy)-2-(5,8-dimethyl-2-(piperidin-1-ylsulfonyl)-7-(p-tolyl)-1,2,3,4-tetrahydroisoquinolin-6-yl)acetic Acid], the concentration for half-maximal inhibition (IC50) was determined as 23 nM.

As for `Cc1ccc(-c2c(C)c3c(c(C)c2[C@H](OC(C)(C)C)C(=O)O)CCN(CCC2CCCCC2)C3)cc1` [Example 39, (S)-2-(tert-butoxy)-2-(2-(2-cyclohexylethyl)-5,8-dimethyl-7-(p-tolyl)-1,2,3,4-tetrahydroisoquinolin-6-yl)acetic Acid], the concentration for half-maximal inhibition (IC50) turned out to be 225 nM.

As for `Cc1ccc(-c2c(C)c3c(c(C)c2[C@H](OC(C)(C)C)C(=O)O)CCN(C2CCC(C)(C)CC2)C3)cc1` [Example 40, (S)-2-(tert-butoxy)-2-(2-(4,4-dimethylcyclohexyl)-5,8-dimethyl-7-(p-tolyl)-1,2,3,4-tetrahydroisoquinolin-6-yl)acetic Acid], the IC50 came to 11 nM.

With `Cc1ccc(-c2c(C)c3c(c(C)c2[C@H](OC(C)(C)C)C(=O)O)CCN(S(=O)(=O)c2ccccc2)C3)cc1` [Example 41, (S)-2-(tert-butoxy)-2-(5,8-dimethyl-2-(phenylsulfonyl)-7-(p-tolyl)-1,2,3,4-tetrahydroisoquinolin-6-yl)acetic Acid], the half-inhibitory concentration (IC50) worked out at 138 nM.

With `Cc1ccc(-c2c(C)c3c(c(C)c2[C@H](OC(C)(C)C)C(=O)O)CCN(C(=O)c2ccccn2)C3)cc1` [Example 42, (S)-2-(tert-butoxy)-2-(5,8-dimethyl-2-picolinoyl-7-(p-tolyl)-1,2,3,4-tetrahydroisoquinolin-6-yl)acetic Acid], the concentration for half-maximal inhibition (IC50) was 1140 nM.

`Cc1ccc(-c2c(C)c3c(c(C)c2[C@H](OC(C)(C)C)C(=O)O)CCN(C(=O)c2cccnc2)C3)cc1` [Example 43, (S)-2-(tert-butoxy)-2-(5,8-dimethyl-2-nicotinoyl-7-(p-tolyl)-1,2,3,4-tetrahydroisoquinolin-6-yl)acetic Acid]: the IC50 worked out at 635 nM.
